{"source": "patent US12708606B2", "about": "(UNIVERSITY OF GEORGIA RESEARCH FOUNDATION, INC., priority 2018, dated 2026)", "key": {"[1]": {"settings": "in vivo; cited from earlier work"}, "[2]": {"settings": "cited from earlier work"}, "[3]": {"test_system": "Sprague-Dawley rats with surgery-induced OA", "experiment": "Histological evaluation (H&E, Safranin O-fast green, OARSI score) in rat ACLT OA model", "type": "in vivo", "procedure": "Sprague Dawley Rats (SD rats) were obtained from Guangxi Medical University. All experiments were conducted in accordance with the guidelines of the Animal Committee and with ethics approval from the Guangxi Medical University Animal Care and Use Committee, China (Protocol Number: 2015-11-27). A total of 152 male SD rats with a weight of 180±20 g were used. After anesthesia, 144 randomly selected rats underwent bilateral anterior cruciate ligament transection (ACLT) on the right knee joints to induce OA. Another 8 rats received sham operations (Sham group), in which the articular cavity was opened and sutured with the short anterior cruciate ligament intact. After surgery, all animals were returned to their cages, with the limbs not immobilized. One month after the surgery, the animals were randomly sorted into […] groups (n=24) and were i.a. injected once per week with the following regimens for 8 weeks: SLFNP+HA (1.74 μg Li in 50 μL 10 mg/mL HA), SLFNP alone (1.74 μg Li in […] PBS), LiCl+HA (3.48 μg Li in 50 μL 10 mg/mL HA), LiCl alone (3.48 μg in 50 μL PBS), HA alone (50 μL), and PBS (50 μL). In the sham groups, no other procedures were conducted. The animals in the six groups were sacrificed at 4 and 8 weeks after therapy (n=12). […]"}, "iNOS": {"test_system": "iNOS", "experiment": "qRT-PCR of iNOS in IL-1β stimulated chondrocytes", "type": "cell-based, rat", "settings": "compared to IL-1β-stimulated cells", "procedure": "(§1) Cells were divided into nine groups: (1) Control: chondrocytes treated with SLFNP; (2) IL-1β: chondrocytes treated with 10 ng/mL IL-1β (Gibco, USA) and cultured for 2 days; (3) LiCl+IL-1β: chondrocytes pre-incubated with LiCl for 1 h followed by treatment with 10 ng/mL IL-1β for 2 days; (4) 1 mM SLFNP+IL-1β: chondrocytes pre-incubated with 1 mM SLFNP for 1 h followed by treatment with IL-1β for 2 days; (5) 5 mM SLFNP+IL-1β: chondrocytes pre-incubated with 5 mM SLFNP for 1 h followed by treatment with IL-1β for 2 days; (6) HA+IL-1β: condrocytes pre-incubated with 10 mg/mL HA for 1 h followed by treatment with IL-1β for 2 days; (7) HA+LiCl+IL-1β: chondrocytes pre-incubated with 10 mM LiCl and HA for 1 h followed by treatment with IL-1β for 2 days; (8) HA+1 mM SLFNP+IL-1β: chondrocytes pre-incubated with 1 mM SLFNP and HA for 1 h followed by treatment with IL-1β for 2 days; (9) HA+5 mM SLFNP+IL-1β: chondrocytes pre-incubated with 5 mM SLFNP and HA for 1 h followed by treatment with IL-1β for 2 days.\n(§2) RNA was isolated from chondrocytes in all groups after 2 days of treatment using an RNA isolation kit (Tiangen Biotechnology). […]"}, "COX-2": {"test_system": "COX-2", "experiment": "qRT-PCR of COX-2 in IL-1β stimulated chondrocytes", "type": "cell-based, rat", "settings": "compared to IL-1β-stimulated cells", "procedure": "as §1, §2"}, "MMP3": {"test_system": "MMP3", "experiment": "qRT-PCR of MMP3 in IL-1β stimulated chondrocytes", "type": "cell-based, rat", "settings": "compared to IL-1β-stimulated cells", "procedure": "as §1, §2"}, "[4]": {"test_system": "Sprague-Dawley rats with surgery-induced OA", "experiment": "Macroscopic evaluation of cartilage lesions in rat ACLT OA model", "type": "in vivo", "procedure": "In vivo analysis was performed in Sprague-Dawley rats which had undergone bilateral anterior cruciate ligament transection (ACTL) surgery. One month after the surgery, the animals were randomly sorted into six groups (n=24) and were i.a. injected once per week with the following regimens: SLFNP+HA (1.74 μg Li in 50 μL HA), SLFNP alone (1.74 μg Li in 50 μL PBS), LiCl+HA (3.48 μg Li in 50 μL HA), LiCl alone (3.48 μg in 50 μL PBS), HA alone (50 μL), and PBS (50 μL). For control, a sham-operated group was also studied.\nSprague Dawley Rats (SD rats) were obtained from Guangxi Medical University. […]\nAfter 4 and 8 weeks of treatment, SD rats were sacrificed by intraperitoneal overdose of pentobarbital. […] The observers evaluated the depth of lesions of the articular cartilage on a scale of 0-4 (0=normal-appearing surface, 1=minimal fibrillation or a slight yellow discoloration of the surface, 2=erosion extending into the superficial or middle layers only, 3=erosion extending into the deep layers, and 4=erosion extending to the subchondral bone). The surface area of erosion was calculated with a digital caliper and presented them as mm2, with a higher score indicating greater cartilage damage."}, "[5]": {"test_system": "IL-1β induced chondrocytes", "experiment": "Chondroprotective effect: CCK-8 viability of IL-1β induced chondrocytes", "type": "cell-based, rat", "settings": "LiCl 10 mM, IL-1β 10 ng/mL, 48 h", "procedure": "The capacity of SLFNP was assessed to protect chondrocytes from deterioration induced by inflammatory cytokines. Chondrocytes were first incubated with SLFNP and then added to the medium 10 ng/mL interleukin-1-beta (IL-1β), a major inflammatory cytokine involved in chronic OA. For comparison, chondrocytes were treated with PBS or LiCl salt (10 mM) before adding IL-1β. In the PBS group, CCK-8 assay found a marked drop of cell viability (37.64% at 48 h). […]"}, "[6]": {"test_system": "IL-1β induced chondrocytes", "experiment": "Live/dead assay of IL-1β induced chondrocytes", "type": "cell-based, rat", "settings": "vs PBS group, IL-1β 10 ng/mL", "procedure": "as §1\nCells were treated as the same procedures as described above. Live/dead assays were performed using a live/dead viability assay kit (Invitrogen, USA) after 2 days of culture. Briefly, cells were incubated in a solution containing […] of calcein AM and […] of ethidium homodimer-1 for 40 min at room temperature in the dark. […]"}, "MMP-13": {"test_system": "MMP-13", "experiment": "Immunofluorescence staining of MMP-13 in IL-1β stimulated chondrocytes", "type": "cell-based, rat", "settings": "pre-incubation before IL-1β 10 ng/mL", "procedure": "as §1\nAfter 2 days of culture, cells in the different treatment groups were washed twice with PBS, fixed in 4% formalin for 20 min, and permeabilized with 0.3% Triton X-100 (WN) in PBS for 10 min. After blocking with 5% BSA in PBS for 1 hour at room temperature, primary MMP-13 antibodies were added (1:200 dilution, Abcam, USA) and incubated at 4° C. overnight. […]"}, "IL6": {"test_system": "IL6", "experiment": "qRT-PCR of IL6 in IL-1β stimulated chondrocytes", "type": "cell-based, rat", "settings": "compared to IL-1β-stimulated cells", "procedure": "as §1, §2"}, "ADAMTS5": {"test_system": "ADAMTS5", "experiment": "qRT-PCR of ADAMTS5 in IL-1β stimulated chondrocytes", "type": "cell-based, rat", "settings": "compared to IL-1β-stimulated cells", "procedure": "as §1, §2"}}}
{"molecule": "hyaluronic acid [HA]", "values": [{"measurement": "time for i.a. injected HA to fully degrade in the joint", "setting": "[1]", "value": "~ 60 h"}]}
{"molecule": "[Li]", "note": "[lithium]", "values": [{"measurement": "serum lithium toxicity threshold", "setting": "[2]", "value": 1.5, "unit": "mM"}]}
{"molecule": "[Cl-].[Li+]", "note": "[LiCl, lithium chloride]", "values": [{"measurement": "reduction of OARSI score compared to the PBS control", "setting": "[3]; Week 4", "value": 19.28, "unit": "%"}, {"measurement": "reduction of OARSI score compared to the PBS control", "setting": "[3]; Week 8", "value": 11.95, "unit": "%"}, {"measurement": "reduction of mRNA level of iNOS", "setting": "iNOS", "value": 57.66, "unit": "%"}, {"measurement": "reduction of mRNA level of COX-2", "setting": "COX-2", "value": 68.29, "unit": "%"}, {"measurement": "reduction of mRNA level of MMP3", "setting": "MMP3", "value": 57.45, "unit": "%"}, {"measurement": "average lesion area", "setting": "[4]; Week 4, i.a. once per week", "value": 8.5, "unit": "mm2"}, {"measurement": "average lesion area", "setting": "[4]; Week 8, i.a. once per week", "value": 10.2, "unit": "mm2"}, {"measurement": "cell viability", "setting": "[5]", "value": 80.77, "unit": "%"}, {"measurement": "positive ethidium homodimer-1 staining", "setting": "[6]", "value": "significantly reduced level of positive staining"}, {"measurement": "MMP13 expression (immunofluorescence)", "setting": "MMP-13", "value": "upregulation was attenuated"}, {"measurement": "reduction of mRNA level of IL6", "setting": "IL6", "value": 54.94, "unit": "%"}, {"measurement": "reduction of mRNA level of ADAMTSS", "setting": "ADAMTS5", "value": 59.77, "unit": "%"}]}
